Residue numbers refer to the chain shown, from its start. Like-named read-outs stand apart in the source and are kept apart here.
What was measured:
[1] = molecular target: T1, purified wild type MGL (wt-MGLL 6H-11-313) (Homo sapiens, UniProt Q99685); experiment: MGL enzyme activity assay (4MU-B cleavage), wild type MGL; assay type: biochemical; settings: 10 μM 4MU-B, 5 nM enzyme, 37° C., read-out: MGL wild type inh IC50
T1 construct: purified wild type MGL (wt-MGLL 6H-11-313)
T1 sequence (Q99685 1-303): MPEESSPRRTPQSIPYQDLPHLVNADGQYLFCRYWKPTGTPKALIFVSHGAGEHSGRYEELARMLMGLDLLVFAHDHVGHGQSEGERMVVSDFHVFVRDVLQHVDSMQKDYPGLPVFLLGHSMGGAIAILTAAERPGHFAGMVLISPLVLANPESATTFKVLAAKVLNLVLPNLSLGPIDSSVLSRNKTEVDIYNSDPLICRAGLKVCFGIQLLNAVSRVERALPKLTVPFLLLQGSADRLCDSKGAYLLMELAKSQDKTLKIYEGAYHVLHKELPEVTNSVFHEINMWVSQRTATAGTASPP
Procedure, shortened: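 Enzyme (5 nM final) cleaved 4MU-B (10 μM final) in 20 mM PIPES pH 7.0 with 150 mM NaCl and 0.001% Tween 20. Compounds were tested at 17 to 0.0003 μM final. Fluorescence (ex 335/em 440 nm) was monitored at 37° C for 5 min, and IC50 was fitted from fractional activity versus inhibitor concentration.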

[2] = molecular target: T2, mutant MGL (Homo sapiens, UniProt Q99685, L169S/L176S); experiment: MGL ThermoFluor assay - mutant; assay type: binding
T2 construct: purified mutant MGL (mut-MGLL 11-313 L179S L186S)
T2 sequence (Q99685 1-303 L169S/L176S): T1 sequence (Q99685 1-303) with L169S, L176S
Procedure, shortened: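 Thermal shift binding with 0.07 mg/ml L169S/L176S MGL, 100 μM 1,8-ANS, 200 mM NaCl, 0.001% Tween-20, 50 mM PIPES pH 7.0. Heated 40–90 °C at 1 °C/min, fluorescence (em 500 nm) tracked to give Tm; Kd fitted from 11-point concentration–Tm response, qKd when stocks quantified by qNMR.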

[3] = 0.07 mg/ml mutant MGL, pH=7.0, read-out: MGL mutant ThermoFluor Kd
[4] = compound concentration measured by qNMR, read-out: MGL mutant ThermoFluor qKd (using qNMR conc.)

Row | IC50 [1] [nM] | Kd [2, 3] [nM] | Kd [2, 4] [nM] | Structure (SMILES)
1 | 6 | 0.3 | 1.2 | O=C(c1nccs1)N1CCC(C2CN(C(=O)c3sc4cc(C(F)(F)F)ccc4c3Cl)C2)CC1 [Cpd 29, 4-(1-{[3-Chloro-6-(trifluoromethyl)-1-benzothiophen-2-yl]carbonyl}azetidin-3-yl)-1-(1,3-thiazol-2-ylcarbonyl)piperidine]
2 | < 5 | 1 | 1.3 | Cc1c(C(=O)N2CC(C3CCN(C(=O)c4nccs4)CC3)C2)sc2cc(C(F)(F)F)ccc12 [Cpd 20, 4-(1-{[3-Methyl-6-(trifluoromethyl)-1-benzothiophen-2-yl]carbonyl}azetidin-3-yl)-1-(1,3-thiazol-2-ylcarbonyl)piperidine]

— patent publication US8513423B2 (Janssen Pharmaceutica, NV, priority 2010, dated 2013)
